In publication PMC2916918, “Inorganic pyrophosphatase in uncultivable hemotrophic mycoplasmas: identification and properties of the enzyme from Mycoplasma suis” (BMC Microbiology, 2010):

Biological target: T1, recombinant M. suis sPPase (rPPase) (Mycoplasma suis, UniProt C4RA40)
T1 construct: gene ppa; tetramer (80 kDa) inferred from immunoblot of native cells only
T1 sequence (C4RA40 1-164): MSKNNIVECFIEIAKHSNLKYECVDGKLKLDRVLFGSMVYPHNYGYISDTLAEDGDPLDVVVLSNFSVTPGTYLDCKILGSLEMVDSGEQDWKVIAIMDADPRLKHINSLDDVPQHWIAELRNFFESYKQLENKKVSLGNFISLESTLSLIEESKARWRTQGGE
Test: phosphate release, molybdate/ascorbic acid colorimetry (Saheki)
Assay type: biochemical
Conditions: 50 mM MgCl2, pH 9.0, varied PPi (Figure 4E); standard assay: 5 mM Mg2+, 100 mM Tris pH 7.5, 1 mM PPi, 55 °C

O=P(O)(O)OP(=O)(O)O [PPi]
phosphate release, molybdate/ascorbic acid colorimetry (Saheki): Activity of M. suis rPPase using different PPi concentrations.
